# Measurements: US11000033B2, “Ketone or oxime compound, and herbicide” (NISSAN CHEMICAL CORPORATION, priority 2014, dated 2021)
# Columns and labels:
# Stellaria media [1] = test: Test Example 4: herbicidal effect by soil treatment (symbol P); type: in vivo; details: application herbicide amount 320 g/ha
# Description: (§1) Herbicidal Effect Test by Soil Treatment
# (§2) Sterilized diluvial soil was placed in a plastic box having a length of 21 cm, a width of 13 cm, and a depth of 7 cm. Each of the seeds of Digitaria ciliaris, Setaria viridis, Echinochloa crus-galli var. crus-galli, Avena fatua, Alopecurus myosuroides, Lolium multiflorum Lam., Apera spica-venti, Abutilon theophrasti, Amaranthus retroflexus, Chenopodium album, Stellaria media, Galium spurium, Veronica persica, corn, soybean, rice, wheat, beet, and rapeseed was sowed in a spot-like manner and was covered with the soil of a thickness of about 1.5 cm. Subsequently, the emulsion agent of the compound present invention prepared in accordance with Formulation Example 2 was diluted with water so as to be a predetermined herbicide amount and the diluted emulsion agent was uniformly applied to the surface of the soil with a small-size spray. The plastic box was placed in a greenhouse of 25° C. to 30° C. to grow plant. 3 weeks later from the herbicide application, the effect to each plant was investigated in accordance with the criteria of Test Example 1.
# corn [2] = test: Test Example 4: effect on crop by soil treatment (symbol c); type: in vivo; details: application herbicide amount 320 g/ha
# Description: as §1
# (§3) Sterilized diluvial soil was placed in a plastic box having a length of 21 cm, a width of 13 cm, and a depth of 7 cm. Each of the seeds of Digitaria ciliaris, Setaria viridis, Echinochloa crus-galli var. crus-galli, Avena fatua, Alopecurus myosuroides, Lolium multiflorum Lam., Apera spica-venti, Abutilon theophrasti, Amaranthus retroflexus, Chenopodium album, Stellaria media, Galium spurium, Veronica persica, corn, soybean, rice, wheat, beet, and rapeseed was sowed in a spot-like manner and was covered with the soil of a thickness of about 1.5 cm. […] The plastic box was placed in a greenhouse of 25° C. to 30° C. to grow plant.
# Setaria viridis [3] = test: Test Example 4: herbicidal effect by soil treatment (symbol G); type: in vivo; details: application herbicide amount 320 g/ha
# Description: as §1, §2
# Lolium multiflorum Lam. [4] = test: Test Example 5: herbicidal effect by foliage application, plastic box (symbol K); type: in vivo; details: 320 g/ha, 3 weeks after application
# Outline: (§4)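 Effect is rated 3 weeks after a foliar spray of water-diluted emulsion concentrate at a predetermined herbicide amount. Plants had grown 14 days in a 25° C. to 30° C. greenhouse from seed in sterilized diluvial soil.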
# Veronica persica [5] = test: Test Example 4: herbicidal effect by soil treatment (symbol R); type: in vivo; details: application herbicide amount 320 g/ha
# Description: as §1, §2
# [6] = system: Echinochloa oryzacola Vasing.; test: Test Example 2: herbicidal activity, application during weed generation in submerged conditions (symbol A); type: in vivo; details: Table 23; application herbicide amount 320 g/ha; grade 0-5 by criteria of Test Example 1
# Outline: (§5)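 Steps: fill pots with alluvial soil; add water to 4 cm depth; co-sow the three weeds; grow at 25° C. to 30° C. under glass; at 1–2 leaves, dose the floodwater with diluted emulsion; rate damage visually after 3 weeks.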
# Amaranthus retroflexus [7] = test: Test Example 4: herbicidal effect by soil treatment (symbol N); type: in vivo; details: application herbicide amount 320 g/ha
# Description: as §1, §2
# Scirpus juncoides = test: Test Example 2: herbicidal activity, application during weed generation in submerged conditions (symbol B); type: in vivo; details: Table 23; application herbicide amount 320 g/ha; grade 0-5 by criteria of Test Example 1
# Outline: as §5
# Setaria viridis [8] = test: Test Example 5: herbicidal effect by foliage application, plastic box (symbol G); type: in vivo; details: 320 g/ha, 3 weeks after application
# Outline: as §4
# Alopecurus myosuroides [9] = test: Test Example 4: herbicidal effect by soil treatment (symbol J); type: in vivo; details: application herbicide amount 320 g/ha
# Description: as §1, §2
# Avena fatua [10] = test: Test Example 5: herbicidal effect by foliage application, plastic box (symbol I); type: in vivo; details: 320 g/ha, 3 weeks after application
# Outline: as §4
# [11] = system: Echinochloa crus-galli var. crus-galli; test: Test Example 4: herbicidal effect by soil treatment (symbol H); type: in vivo; details: application herbicide amount 320 g/ha
# Description: as §1, §2
# Abutilon theophrasti [12] = test: Test Example 4: herbicidal effect by soil treatment (symbol M); type: in vivo; details: application herbicide amount 320 g/ha
# Description: as §1, §2
# Amaranthus retroflexus [13] = test: Test Example 5: herbicidal effect by foliage application, plastic box (symbol N); type: in vivo; details: 320 g/ha, 3 weeks after application
# Outline: as §4
# Digitaria ciliaris [14] = test: Test Example 4: herbicidal effect by soil treatment (symbol F); type: in vivo; details: application herbicide amount 320 g/ha
# Description: as §1, §2
# Apera spica-venti [15] = test: Test Example 5: herbicidal effect by foliage application, plastic box (symbol L); type: in vivo; details: 320 g/ha, 3 weeks after application
# Outline: as §4
# Chenopodium album [16] = test: Test Example 5: herbicidal effect by foliage application, plastic box (symbol O); type: in vivo; details: 320 g/ha, 3 weeks after application
# Outline: as §4
# Alopecurus myosuroides [17] = test: Test Example 5: herbicidal effect by foliage application, plastic box (symbol J); type: in vivo; details: 320 g/ha, 3 weeks after application
# Outline: as §4
# Digitaria ciliaris [18] = test: Test Example 5: herbicidal effect by foliage application, plastic box (symbol F); type: in vivo; details: 320 g/ha, 3 weeks after application
# Outline: as §4
# Apera spica-venti [19] = test: Test Example 4: herbicidal effect by soil treatment (symbol L); type: in vivo; details: application herbicide amount 320 g/ha
# Description: as §1, §2
# Veronica persica [20] = test: Test Example 5: herbicidal effect by foliage application, plastic box (symbol R); type: in vivo; details: 320 g/ha, 3 weeks after application
# Outline: as §4
# wheat [21] = test: Test Example 4: effect on crop by soil treatment (symbol e); type: in vivo; details: application herbicide amount 320 g/ha
# Description: as §1, §3
# soybean [22] = test: Test Example 5: effect on crop by foliage application, plastic box (symbol d); type: in vivo; details: 320 g/ha, 3 weeks after application
# Outline: (§6)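 Box culture: sterile diluvial soil, seeds spot-sown, ~1.5 cm cover, raised under glass at 25–30° C.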
# soybean [23] = test: Test Example 4: effect on crop by soil treatment (symbol d); type: in vivo; details: application herbicide amount 320 g/ha
# Description: as §1, §3
# Abutilon theophrasti [24] = test: Test Example 5: herbicidal effect by foliage application, plastic box (symbol M); type: in vivo; details: 320 g/ha, 3 weeks after application
# Outline: as §4
# rice plant = test: Test Example 5: effect on crop by foliage application, plastic box (symbol b); type: in vivo; details: 320 g/ha, 3 weeks after application
# Outline: as §6
# Stellaria media [25] = test: Test Example 5: herbicidal effect by foliage application, plastic box (symbol P); type: in vivo; details: 320 g/ha, 3 weeks after application
# Outline: as §4
# Chenopodium album [26] = test: Test Example 4: herbicidal effect by soil treatment (symbol O); type: in vivo; details: application herbicide amount 320 g/ha
# Description: as §1, §2
# [27] = system: Echinochloa crus-galli var. crus-galli; test: Test Example 5: herbicidal effect by foliage application, plastic box (symbol H); type: in vivo; details: 320 g/ha, 3 weeks after application
# Outline: as §4
# Monochoria vaginalis = test: Test Example 2: herbicidal activity, application during weed generation in submerged conditions (symbol C); type: in vivo; details: Table 23; application herbicide amount 320 g/ha; grade 0-5 by criteria of Test Example 1
# Outline: as §5
# corn [28] = test: Test Example 5: effect on crop by foliage application, plastic box (symbol c); type: in vivo; details: 320 g/ha, 3 weeks after application
# Outline: as §6
# Avena fatua [29] = test: Test Example 4: herbicidal effect by soil treatment (symbol I); type: in vivo; details: application herbicide amount 320 g/ha
# Description: as §1, §2
# Lolium multiflorum Lam. [30] = test: Test Example 4: herbicidal effect by soil treatment (symbol K); type: in vivo; details: application herbicide amount 320 g/ha
# Description: as §1, §2
# beet [31] = test: Test Example 5: effect on crop by foliage application, plastic box (symbol f); type: in vivo; details: 320 g/ha, 3 weeks after application
# Outline: as §6
# wheat [32] = test: Test Example 5: effect on crop by foliage application, plastic box (symbol e); type: in vivo; details: 320 g/ha, 3 weeks after application
# Outline: as §6
# beet [33] = test: Test Example 4: effect on crop by soil treatment (symbol f); type: in vivo; details: application herbicide amount 320 g/ha
# Description: as §1, §3
# rapeseed [34] = test: Test Example 4: effect on crop by soil treatment (symbol g); type: in vivo; details: application herbicide amount 320 g/ha
# Description: as §1, §3
# rice = test: Test Example 4: effect on crop by soil treatment (symbol b); type: in vivo; details: application herbicide amount 320 g/ha
# Description: as §1, §3
# rapeseed [35] = test: Test Example 5: effect on crop by foliage application, plastic box (symbol g); type: in vivo; details: 320 g/ha, 3 weeks after application
# Outline: as §6
# Galium spurium = test: Test Example 4: herbicidal effect by soil treatment (symbol Q); type: in vivo; details: application herbicide amount 320 g/ha
# Description: as §1, §2
smiles,measurement,setting,value
CON=C(C)CC1CC(OC)=C(c2c(C)cc(OCC(F)(F)F)cc2C)C1=O (centres unmarked) [6-042],melting point,,117 to 119 °C
CC(=O)CC1CC(O)=C(c2c(C)cc(C3CC3)cc2C)C1=O (centres unmarked) [7-013],"Herbicidal effect grade, P: Stellaria media",Stellaria media [1],0 (Herbicidal ratio of 5% or lower (almost no effect))
same,"Effect on crop grade, c: corn",corn [2],0 (Herbicidal ratio of 5% or lower (almost no effect))
same,"Herbicidal effect grade, G: Setaria viridis",Setaria viridis [3],0 (Herbicidal ratio of 5% or lower (almost no effect))
same,"K: Lolium multiflorum Lam., herbicidal effect (criteria of Test Example 1)",Lolium multiflorum Lam. [4],3 (Herbicidal ratio of 40% or higher and lower than 70%)
same,"Herbicidal effect grade, R: Veronica persica",Veronica persica [5],0 (Herbicidal ratio of 5% or lower (almost no effect))
same,"Herbicidal effect grade, A: Echinochloa oryzacola Vasing.",[6],2 (Herbicidal ratio of 20% or higher and lower than 40%)
same,"Herbicidal effect grade, N: Amaranthus retroflexus",Amaranthus retroflexus [7],0 (Herbicidal ratio of 5% or lower (almost no effect))
same,"Herbicidal effect grade, B: Scirpus juncoides",Scirpus juncoides,0 (Herbicidal ratio of 5% or lower (almost no effect))
same,"G: Setaria viridis, herbicidal effect (criteria of Test Example 1)",Setaria viridis [8],2 (Herbicidal ratio of 20% or higher and lower than 40%)
same,"Herbicidal effect grade, J: Alopecurus myosuroides",Alopecurus myosuroides [9],0 (Herbicidal ratio of 5% or lower (almost no effect))
same,"I: Avena fatua, herbicidal effect (criteria of Test Example 1)",Avena fatua [10],1 (Herbicidal ratio of 5% or higher and lower than 20%)
same,"Herbicidal effect grade, H: Echinochloa crus-galli var. crus-galli",[11],0 (Herbicidal ratio of 5% or lower (almost no effect))
same,"Herbicidal effect grade, M: Abutilon theophrasti",Abutilon theophrasti [12],0 (Herbicidal ratio of 5% or lower (almost no effect))
same,"N: Amaranthus retroflexus, herbicidal effect (criteria of Test Example 1)",Amaranthus retroflexus [13],5 (Herbicidal ratio of 90% or more (almost completely withered))
same,"Herbicidal effect grade, F: Digitaria ciliaris",Digitaria ciliaris [14],3 (Herbicidal ratio of 40% or higher and lower than 70%)
same,"L: Apera spica-venti, herbicidal effect (criteria of Test Example 1)",Apera spica-venti [15],0 (Herbicidal ratio of 5% or lower (almost no effect))
same,"O: Chenopodium album, herbicidal effect (criteria of Test Example 1)",Chenopodium album [16],0 (Herbicidal ratio of 5% or lower (almost no effect))
same,"J: Alopecurus myosuroides, herbicidal effect (criteria of Test Example 1)",Alopecurus myosuroides [17],3 (Herbicidal ratio of 40% or higher and lower than 70%)
same,"F: Digitaria ciliaris, herbicidal effect (criteria of Test Example 1)",Digitaria ciliaris [18],4 (Herbicidal ratio of 70% or higher and lower than 90%)
same,"Herbicidal effect grade, L: Apera spica-venti",Apera spica-venti [19],0 (Herbicidal ratio of 5% or lower (almost no effect))
same,"R: Veronica persica, herbicidal effect (criteria of Test Example 1)",Veronica persica [20],0 (Herbicidal ratio of 5% or lower (almost no effect))
same,"Effect on crop grade, e: wheat",wheat [21],0 (Herbicidal ratio of 5% or lower (almost no effect))
same,"d: soybean, effect on crop (criteria of Test Example 1)",soybean [22],0 (Herbicidal ratio of 5% or lower (almost no effect))
same,"Effect on crop grade, d: soybean",soybean [23],0 (Herbicidal ratio of 5% or lower (almost no effect))
same,"M: Abutilon theophrasti, herbicidal effect (criteria of Test Example 1)",Abutilon theophrasti [24],0 (Herbicidal ratio of 5% or lower (almost no effect))
same,"b: directly sowed rice plant, effect on crop (criteria of Test Example 1)",rice plant,1 (Herbicidal ratio of 5% or higher and lower than 20%)
same,"P: Stellaria media, herbicidal effect (criteria of Test Example 1)",Stellaria media [25],0 (Herbicidal ratio of 5% or lower (almost no effect))
same,"Herbicidal effect grade, O: Chenopodium album",Chenopodium album [26],0 (Herbicidal ratio of 5% or lower (almost no effect))
same,"H: Echinochloa crus-galli var. crus-galli, herbicidal effect (criteria of Test Example 1)",[27],1 (Herbicidal ratio of 5% or higher and lower than 20%)
same,"Herbicidal effect grade, C: Monochoria vaginalis",Monochoria vaginalis,0 (Herbicidal ratio of 5% or lower (almost no effect))
same,"c: corn, effect on crop (criteria of Test Example 1)",corn [28],0 (Herbicidal ratio of 5% or lower (almost no effect))
same,"Herbicidal effect grade, I: Avena fatua",Avena fatua [29],0 (Herbicidal ratio of 5% or lower (almost no effect))
same,"Herbicidal effect grade, K: Lolium multiflorum Lam.",Lolium multiflorum Lam. [30],0 (Herbicidal ratio of 5% or lower (almost no effect))
same,"f: beet, effect on crop (criteria of Test Example 1)",beet [31],0 (Herbicidal ratio of 5% or lower (almost no effect))
same,"e: wheat, effect on crop (criteria of Test Example 1)",wheat [32],0 (Herbicidal ratio of 5% or lower (almost no effect))
same,"Effect on crop grade, f: beet",beet [33],0 (Herbicidal ratio of 5% or lower (almost no effect))
same,"Effect on crop grade, g: rapeseed",rapeseed [34],0 (Herbicidal ratio of 5% or lower (almost no effect))
same,"Effect on crop grade, b: directly sowed rice plant",rice,4 (Herbicidal ratio of 70% or higher and lower than 90%)
same,"g: rapeseed, effect on crop (criteria of Test Example 1)",rapeseed [35],1 (Herbicidal ratio of 5% or higher and lower than 20%)
same,"Herbicidal effect grade, Q: Galium spurium",Galium spurium,0 (Herbicidal ratio of 5% or lower (almost no effect))
